In patent US12358886B2, “Heterocyclic compounds for use in the treatment of cancer” (Artios Pharma Limited, priority 2019, dated 2025):

These molecules were tested against Polθ protein (amino acids 2-2590) (Homo sapiens, UniProt O75417) (assay: Polθ full length enzyme potency assay (PicoGreen)). Settings: Polθ IC50 (nM), full length N-His, C-term FLAG tagged Polθ, PicoGreen fluorescence, 12 point concentration response.
Sequence of Polθ protein (amino acids 2-2590) (O75417 2-2590): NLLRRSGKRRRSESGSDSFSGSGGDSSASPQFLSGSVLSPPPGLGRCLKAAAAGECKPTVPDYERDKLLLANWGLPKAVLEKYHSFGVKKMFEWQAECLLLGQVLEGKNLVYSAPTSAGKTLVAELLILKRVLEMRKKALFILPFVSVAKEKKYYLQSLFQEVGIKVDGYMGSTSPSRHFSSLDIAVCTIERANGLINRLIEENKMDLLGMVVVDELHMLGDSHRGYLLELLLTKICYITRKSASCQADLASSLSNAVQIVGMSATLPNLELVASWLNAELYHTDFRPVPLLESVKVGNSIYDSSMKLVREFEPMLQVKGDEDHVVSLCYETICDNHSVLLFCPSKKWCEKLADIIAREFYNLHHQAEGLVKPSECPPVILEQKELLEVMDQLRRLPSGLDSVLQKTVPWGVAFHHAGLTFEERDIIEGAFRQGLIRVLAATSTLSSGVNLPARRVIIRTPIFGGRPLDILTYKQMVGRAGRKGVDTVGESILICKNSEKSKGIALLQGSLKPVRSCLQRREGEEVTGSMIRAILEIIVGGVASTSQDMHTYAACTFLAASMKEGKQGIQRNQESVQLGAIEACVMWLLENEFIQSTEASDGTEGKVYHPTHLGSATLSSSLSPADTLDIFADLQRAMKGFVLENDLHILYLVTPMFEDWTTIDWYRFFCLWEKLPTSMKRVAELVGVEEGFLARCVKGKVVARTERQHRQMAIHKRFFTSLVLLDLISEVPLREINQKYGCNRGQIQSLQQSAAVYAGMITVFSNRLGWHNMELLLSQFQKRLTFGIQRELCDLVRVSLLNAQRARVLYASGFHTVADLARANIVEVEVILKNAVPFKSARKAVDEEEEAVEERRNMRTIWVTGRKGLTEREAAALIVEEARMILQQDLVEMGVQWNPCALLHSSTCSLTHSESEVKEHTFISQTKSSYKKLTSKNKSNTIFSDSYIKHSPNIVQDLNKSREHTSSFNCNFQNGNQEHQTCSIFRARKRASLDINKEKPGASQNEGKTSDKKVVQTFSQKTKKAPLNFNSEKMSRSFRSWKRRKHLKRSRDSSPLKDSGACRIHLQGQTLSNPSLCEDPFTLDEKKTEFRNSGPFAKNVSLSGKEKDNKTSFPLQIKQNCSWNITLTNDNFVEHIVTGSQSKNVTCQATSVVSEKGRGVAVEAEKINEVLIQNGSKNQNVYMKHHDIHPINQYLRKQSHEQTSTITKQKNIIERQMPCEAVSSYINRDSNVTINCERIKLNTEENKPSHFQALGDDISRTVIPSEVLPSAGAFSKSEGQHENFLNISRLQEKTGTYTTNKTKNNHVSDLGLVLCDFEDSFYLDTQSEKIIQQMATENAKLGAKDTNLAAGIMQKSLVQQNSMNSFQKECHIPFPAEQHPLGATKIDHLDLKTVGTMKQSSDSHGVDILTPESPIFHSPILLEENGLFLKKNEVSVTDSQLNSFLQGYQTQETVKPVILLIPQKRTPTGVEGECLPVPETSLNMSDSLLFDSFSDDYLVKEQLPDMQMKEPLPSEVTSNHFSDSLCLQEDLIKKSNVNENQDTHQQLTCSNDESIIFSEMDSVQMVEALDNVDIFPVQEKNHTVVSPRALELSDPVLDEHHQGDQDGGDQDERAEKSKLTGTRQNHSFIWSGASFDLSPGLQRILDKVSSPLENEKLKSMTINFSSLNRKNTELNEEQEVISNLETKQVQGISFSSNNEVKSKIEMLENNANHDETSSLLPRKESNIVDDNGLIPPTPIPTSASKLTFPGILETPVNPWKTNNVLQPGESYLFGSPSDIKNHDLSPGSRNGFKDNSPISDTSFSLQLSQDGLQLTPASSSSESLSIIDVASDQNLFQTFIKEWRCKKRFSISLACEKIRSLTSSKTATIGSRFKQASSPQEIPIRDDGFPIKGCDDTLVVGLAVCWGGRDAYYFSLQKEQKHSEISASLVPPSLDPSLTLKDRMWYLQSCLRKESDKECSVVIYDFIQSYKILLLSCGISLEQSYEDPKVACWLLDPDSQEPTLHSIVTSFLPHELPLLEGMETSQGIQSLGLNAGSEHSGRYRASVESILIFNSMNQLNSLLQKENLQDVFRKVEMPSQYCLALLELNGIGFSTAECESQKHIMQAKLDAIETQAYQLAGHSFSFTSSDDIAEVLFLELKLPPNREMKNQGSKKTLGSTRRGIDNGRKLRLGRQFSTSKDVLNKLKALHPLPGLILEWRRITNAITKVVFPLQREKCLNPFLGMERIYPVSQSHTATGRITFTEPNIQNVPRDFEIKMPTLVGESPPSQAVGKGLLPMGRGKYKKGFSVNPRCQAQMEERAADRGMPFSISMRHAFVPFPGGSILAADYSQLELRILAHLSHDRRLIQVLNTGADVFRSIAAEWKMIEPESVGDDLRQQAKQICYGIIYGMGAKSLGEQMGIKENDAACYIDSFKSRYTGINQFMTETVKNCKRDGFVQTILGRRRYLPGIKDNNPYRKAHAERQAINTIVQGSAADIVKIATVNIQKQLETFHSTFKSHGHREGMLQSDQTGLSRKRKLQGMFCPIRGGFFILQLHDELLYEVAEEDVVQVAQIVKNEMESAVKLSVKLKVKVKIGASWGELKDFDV

| Compound | IC50 [nM] |
| --- | --- |
| Cc1cc(C(F)(F)F)cc(N2C(=O)CC[C@H]2C(=O)N(C)c2ccc(F)c(C)n2)n1 [Example 60, (S)—N-(5-Fluoro-6-methylpyridin-2-yl)-N-methyl-1-(6-methyl-4-(trifluoromethyl)pyridin-2-yl)-5-oxopyrrolidine-2-carboxamide] | 76 |
| CCN(C(=O)[C@@H]1C[C@H](N)C(=O)N1c1cc(C(F)(F)F)cc(C)n1)c1ccc(F)c(Cl)c1 [Example 61, (2S,4S)-4-Amino-N-(3-chloro-4-fluorophenyl)-N-ethyl-1-(6-methyl-4-(trifluoromethyl)pyridin-2-yl)-5-oxopyrrolidine-2-carboxamide] | 136 |
| CCN(C(=O)[C@@H]1C[C@H](NC(C)=O)C(=O)N1c1cc(C(F)(F)F)cc(C)n1)c1ccc(F)c(Cl)c1 [Example 62, (2S,4S)-4-Acetamido-N-(3-chloro-4-fluorophenyl)-N-ethyl-1-(6-methyl-4-(trifluoromethyl)pyridin-2-yl)-5-oxopyrrolidine-2-carboxamide] | 208 |
| CCN(C(=O)[C@@H]1C[C@H](N2CCOCC2)C(=O)N1c1cc(C(F)(F)F)cc(C)n1)c1ccc(F)c(Cl)c1 [Example 63, (2S,4S)—N-(3-Chloro-4-fluorophenyl)-N-ethyl-1-(6-methyl-4-(trifluoro-methyl)pyridin-2-yl)-4-morpholino-5-oxopyrrolidine-2-carboxamide] | 410 |
| CCN(C(=O)[C@@H]1C[C@H](O)CN1c1nc(C)cc(C(F)(F)F)n1)c1ccc(F)c(Cl)c1 [Example 64, (2S,4S)—N-(3-Chloro-4-fluorophenyl)-N-ethyl-4-hydroxy-1-(4-methyl-6-(trifluoromethyl)-pyrimidin-2-yl)pyrrolidine-2-carboxamide] | 166 |
| Cc1cc(C(F)(F)F)cc(N2C(=O)[C@@H](O)[C@@H](O)[C@H]2C(=O)N(C)c2ccc(F)c(Cl)c2)n1 [Example 65, (2S,3S,4S)—N-(3-Chloro-4-fluorophenyl)-3,4-dihydroxy-N-methyl-1-(6-methyl-4-(trifluoromethyl)pyridin-2-yl)-5-oxopyrrolidine-2-carboxamide] | 8 |
| Cc1cc(C(F)(F)F)cc(N2C(=O)[C@@H](O)[C@@H](O)[C@H]2C(=O)N(C)c2ccc(F)c(C)c2)n1 [Example 67, (2S,3S,4S)-N-(4-Fluoro-3-methyl-phenyl)-3,4-dihydroxy-N-methyl-1-(6-methyl-4-(trifluoromethyl)pyridin-2-yl)-5-oxopyrrolidine-2-carboxamide] | 6 |
| Cc1cc(C(F)(F)F)cc(N2C(=O)[C@@H](O)[C@@H](O)[C@H]2C(=O)N(C)c2cc(F)cc(Cl)c2)n1 [Example 68, (2S,3S,4S)-N-(3-Chloro-5-fluoro-phenyl)-3,4-dihydroxy-N-methyl-1-(6-methyl-4-(trifluoromethyl)pyridin-2-yl)-5-oxopyrrolidine-2-carboxamide] | 31 |
| Cc1cc(C(F)(F)F)cc(N2C(=O)[C@H]3OC(C)(C)O[C@H]3[C@H]2C(=O)N(C)c2ccc(F)c(Cl)c2F)n1 [Example 69, (3aS,4S,6aS)—N-(3-Chloro-2,4-difluorophenyl)-N,2,2-trimethyl-5-(6-methyl-4-(trifluoromethyl)-pyridin-2-yl)-6-oxotetrahydro-4H-[1,3]dioxolo[4,5-c]pyrrole-4-carboxamide] | 69 |
| Cc1cc(C(F)(F)F)cc(N2C(=O)[C@@H](O)[C@@H](O)[C@H]2C(=O)N(C)c2ccc(F)c(Cl)c2F)n1 [Example 70, (2S,3S,4S)—N-(3-Chloro-2,4-difluorophenyl)-3,4-dihydroxy-N-methyl-1-(6-methyl-4-(trifluoromethyl)pyridin-2-yl)-5-oxopyrrolidine-2-carboxamide] | 4 |
| Cc1cc(C(F)(F)F)cc(N2C(=O)[C@H](O)[C@H](O)[C@H]2C(=O)N(C)c2ccc(F)c(Cl)c2F)n1 [Example 71, (2S,3R,4R)—N-(3-Chloro-2,4-difluorophenyl)-3,4-dihydroxy-N-methyl-1-(6-methyl-4-(trifluoromethyl)pyridin-2-yl)-5-oxopyrrolidine-2-carboxamide] | 10 |
| Cc1cc(C(F)(F)F)cc(N2C(=O)[C@H](O)[C@H](O)[C@H]2C(=O)N(C)c2ccc(F)c(Cl)c2)n1 [Example 72, (2S,3R,4R)—N-(3-Chloro-4-fluorophenyl)-3,4-dihydroxy-N-methyl-1-(6-methyl-4-(trifluoromethyl)pyridin-2-yl)-5-oxopyrrolidine-2-carboxamide] | 32 |
| Cc1cc(C(F)(F)F)cc(N2C(=O)[C@@H](COCc3ccccc3)C[C@H]2C(=O)N(C)c2ccc(F)c(Cl)c2)n1 [Example 76, (2S,4R)-4-((Benzyloxy)methyl)-N-(3-chloro-4-fluorophenyl)-N-methyl-1-(6-methyl-4-(trifluoromethyl)pyridin-2-yl)-5-oxopyrrolidine-2-carboxamide] | 24 |
| Cc1cc(C(F)(F)F)cc(N2C(=O)[C@@H](CO)C[C@H]2C(=O)N(C)c2ccc(F)c(Cl)c2)n1 [Example 77, (2S,4R)—N-(3-Chloro-4-fluorophenyl)-4-(hydroxymethyl)-N-methyl-1-(6-methyl-4-(trifluoromethyl)pyridin-2-yl)-5-oxopyrrolidine-2-carboxamide] | 11 |
| Cc1cc(C(F)(F)F)cc(N2C(=O)C[C@@H](O)[C@H]2C(=O)N(C)c2ccc(F)c(Cl)c2)n1 [Example 80, (2S,3R)—N-(3-Chloro-4-fluorophenyl)-3-hydroxy-N-methyl-1-(6-methyl-4-(trifluoromethyl)-pyridin-2-yl)-5-oxopyrrolidine-2-carboxamide] | 6 |
| Cc1cc(C(F)(F)F)c(C#N)c(N2CC[C@@H](O)[C@H]2C(=O)N(C)c2ccc(F)c(Cl)c2)n1 [Example 81, (2S,3R)—N-(3-Chloro-4-fluorophenyl)-1-(3-cyano-6-methyl-4-(trifluoromethyl)pyridin-2-yl)-3-hydroxy-N-methylpyrrolidine-2-carboxamide] | 8 |
| CCN(C(=O)[C@@H]1[C@H](O)CCN1c1nc(C)cc(C(F)(F)F)c1C#N)c1ccc(F)c(Cl)c1 [Example 82, (2S,3R)—N-(3-Chloro-4-fluorophenyl)-1-(3-cyano-6-methyl-4-(trifluoromethyl)pyridin-2-yl)-N-ethyl-3-hydroxypyrrolidine-2-carboxamide] | 8 |
| Cc1cc(C(F)(F)F)cc(N2C(=O)OC[C@H]2C(=O)N(C)c2ccc(F)c(Cl)c2)n1 [Example 83, (S)—N-(3-Chloro-4-fluorophenyl)-N-methyl-3-(6-methyl-4-(trifluoromethyl)pyridin-2-yl)-2-oxooxazolidine-4-carboxamide] | 16 |
| Cc1cc(C(F)(F)F)cc(N2C(=O)OC[C@H]2C(=O)N(C)c2ccc(Cl)c(C)c2)n1 [Example 84, (S)—N-(4-Chloro-3-methylphenyl)-N-methyl-3-(6-methyl-4-(trifluoromethyl)pyridin-2-yl)-2-oxooxazolidine-4-carboxamide] | 6 |
| Cc1cc(C(F)(F)F)cc(N2C(=O)OC[C@H]2C(=O)N(C)c2ccc(F)c(Cl)c2F)n1 [Example 85, (S)—N-(3-Chloro-2,4-difluorophenyl)-N-methyl-3-(6-methyl-4-(trifluoromethyl)pyridin-2-yl)-2-oxooxazolidine-4-carboxamide] | 5 |
| Cc1cc(C(F)(F)F)cc(N2C(=O)OC[C@H]2C(=O)N(C)c2ccc(F)c(C)c2)n1 [Example 86, (S)-N-(4-Fluoro-3-methylphenyl)-N-methyl-3-(6-methyl-4-(trifluoromethyl)pyridin-2-yl)-2-oxooxazolidine-4-carboxamide] | 9 |
| Cc1cc(C(F)(F)F)cc(N2C(=O)OC[C@H]2C(=O)N(C)c2ccc(C)c(Cl)c2)n1 [Example 88, (S)-N-(3-Chloro-4-methylphenyl)-N-methyl-3-(6-methyl-4-(trifluoromethyl)pyridin-2-yl)-2-oxooxazolidine-4-carboxamide] | 6 |
| Cc1cc(C(F)(F)F)cc(N2C(=O)OC[C@H]2C(=O)N(C)c2ccc(Cl)c(Cl)c2)n1 [Example 89, (S)-N-(3,4-Dichlorophenyl)-N-methyl-3-(6-methyl-4-(trifluoromethyl)-pyridin-2-yl)-2-oxooxazolidine-4-carboxamide] | 16 |
| COc1cc(N(C)C(=O)[C@@H]2COC(=O)N2c2cc(C(F)(F)F)cc(C)n2)ccc1F [Example 90, (S)-N-(4-Fluoro-3-methoxyphenyl)-N-methyl-3-(6-methyl-4-(trifluoromethyl)pyridin-2-yl)-2-oxooxazolidine-4-carboxamide] | 226 |
| COc1cc(N(C)C(=O)[C@@H]2COC(=O)N2c2cc(C(F)(F)F)cc(C)n2)ccc1Cl [Example 91, (S)-N-(4-Chloro-3-methoxyphenyl)-N-methyl-3-(6-methyl-4-(trifluoromethyl)pyridin-2-yl)-2-oxooxazolidine-4-carboxamide] | 81 |

Same assay, conditions: read-out: Polθ IC50; full length N-His, C-term FLAG tagged Polθ, PicoGreen fluorescence, 12 point concentration response

| Compound | IC50 [nM] |
| --- | --- |
| CCN(C(=O)[C@@H]1[C@H](O)[C@H](O)C(=O)N1c1cc(C(F)(F)F)cc(C)n1)c1ccc(F)c(Cl)c1 [Example 66, (2S,3S,4S)-N-(3-Chloro-4-fluoro-phenyl)-N-ethyl-3,4-dihydroxy-1-(6-methyl-4-(trifluoromethyl)pyridin-2-yl)-5-oxopyrrolidine-2-carboxamide] | 20 |
| Cc1cc(C(F)(F)F)cc(N2C(=O)[C@@H](O)C[C@H]2C(=O)N(C)c2ccc(F)c(Cl)c2)n1 [Example 74, (2S,4S)—N-(3-Chloro-4-fluorophenyl)-4-hydroxy-N-methyl-1-(6-methyl-4-(trifluoromethyl)-pyridin-2-yl)-5-oxopyrrolidine-2-carboxamide] | 25 |
| CCN(C(=O)[C@@H]1C[C@H](O)C(=O)N1c1cc(C(F)(F)F)cc(C)n1)c1ccc(F)c(Cl)c1 [Example 75, (2S,4S)—N-(3-Chloro-4-fluorophenyl)-N-ethyl-4-hydroxy-1-(6-methyl-4-(trifluoromethyl)pyridin-2-yl)-5-oxopyrrolidine-2-carboxamide] | 95 |
| Cc1cc(C(F)(F)F)cc(N2C(=O)OC[C@H]2C(=O)N(C)c2cccc(Cl)c2)n1 [Example 87, (S)-N-(3-Chlorophenyl)-N-methyl-3-(6-methyl-4-(trifluoromethyl)pyridin-2-yl)-2-oxooxazolidine-4-carboxamide] | 15 |
